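Values below derive from 48-hour exposures of cells grown in 96-well plates, with endpoints linearly interpolated between the two concentrations bracketing the appropriate inhibition level. Abbreviation: GI50, concentration required for 50% inhibition of growth.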 The source made the active and inactive calls. Cut-off read from the data, not from the text of the source: active = GI50 up to about 1.1 µM and inactive = higher.
Key:
Assay in all cases: NCI-60 cell line screen, 48 h
SNB-75 = tested on: SNB-75
Malme-3M = tested on: Malme-3M
SNB-19 = tested on: SNB-19
SF-295 = tested on: SF-295
COLO 205 = tested on: COLO 205
BT-549 = tested on: BT-549
HL-60 = tested on: HL-60
SF-268 = tested on: SF-268
OVCAR-5 = tested on: OVCAR-5
NCI-H460 = tested on: NCI-H460
786-0 = tested on: 786-0
MDA-MB-435 = tested on: MDA-MB-435
KM12 = tested on: KM12
MDA-N = tested on: MDA-N
MCF7 = tested on: MCF7
DU-145 = tested on: DU-145
HCT-15 = tested on: HCT-15
RXF 393 = tested on: RXF 393
MDA-MB-231 = tested on: MDA-MB-231
NCI/ADR-RES = tested on: NCI/ADR-RES

| SMILES | GI50 (SNB-75) | GI50 (Malme-3M) | GI50 (SNB-19) | GI50 (SF-295) | GI50 (COLO 205) | GI50 (BT-549) | GI50 (HL-60) | GI50 (SF-268) | GI50 (OVCAR-5) | GI50 (NCI-H460) | GI50 (786-0) | GI50 (MDA-MB-435) | GI50 (KM12) | GI50 (MDA-N) | GI50 (MCF7) | GI50 (DU-145) | GI50 (HCT-15) | GI50 (RXF 393) | GI50 (MDA-MB-231) | GI50 (NCI/ADR-RES) |
| --- | --- | --- | --- | --- | --- | --- | --- | --- | --- | --- | --- | --- | --- | --- | --- | --- | --- | --- | --- | --- |
| N#C/C(=C\c1ccc2ccccc2c1)C(=O)c1ccccc1 | 93.1 µM (inactive) | > 95.7 µM (inactive) | > 82.4 µM (inactive) | > 54.6 µM (inactive) | > 100 µM (inactive) | 52.2 µM (inactive) | 30.9 µM (inactive) | 63.5 µM (inactive) | > 100 µM (inactive) | > 94.6 µM (inactive) | > 61.8 µM (inactive) | 19.4 µM (inactive) | > 100 µM (inactive) | 44.6 µM (inactive) | > 100 µM (inactive) | > 100 µM (inactive) | 65 µM | 36.2 µM (inactive) |  |  |
| CC(=O)/C=C(/C=N/O)c1ccccc1 | 56 µM (inactive) | > 100 µM (inactive) | > 100 µM (inactive) | > 100 µM (inactive) | > 100 µM (inactive) | > 100 µM (inactive) |  | > 100 µM (inactive) | > 100 µM (inactive) | > 100 µM (inactive) | > 100 µM (inactive) | > 100 µM (inactive) | > 100 µM (inactive) | > 100 µM (inactive) | > 100 µM (inactive) |  | 64.3 µM |  | > 100 µM (inactive) | > 100 µM (inactive) |
| N#CCc1nc2cc(C(F)(F)F)ccc2s1 | 35.3 µM (inactive) | 42.6 µM (inactive) |  | 49.4 µM (inactive) | 34 µM (inactive) | 31 µM (inactive) |  | 34.8 µM (inactive) | > 100 µM (inactive) |  | 37.3 µM (inactive) | 40.4 µM (inactive) | 64.6 µM (inactive) | 32.2 µM (inactive) |  | 48.3 µM (inactive) | 52.1 µM | 52.2 µM (inactive) | 95.1 µM (inactive) | 55.7 µM (inactive) |
| O=C1CS[C@@](CC(c2ccc(Cl)cc2)c2ccc(Cl)cc2)(c2ccc(Cl)cc2)N1 | 33.5 µM (inactive) | 21.6 µM (inactive) | 33.2 µM (inactive) | 5.08 µM (inactive) | 4.74 µM (inactive) | 49.8 µM (inactive) | 3.8 µM (inactive) | 17.5 µM (inactive) | > 100 µM (inactive) | 9.1 µM (inactive) | 9.66 µM (inactive) | 14 µM (inactive) | 13.4 µM (inactive) | 8.13 µM (inactive) | 4.18 µM (inactive) | 39.1 µM (inactive) | 10.8 µM | 3.56 µM (inactive) |  | 8.17 µM (inactive) |
| CCOC(=O)c1c(NC(=O)c2ccc(Br)cc2)sc2c1CCCC2 |  |  | > 100 µM (inactive) | > 100 µM (inactive) | > 100 µM (inactive) | > 100 µM (inactive) | > 100 µM (inactive) | > 100 µM (inactive) | > 100 µM (inactive) | 0.182 µM (active) | > 100 µM (inactive) | > 100 µM (inactive) | 39.1 µM (inactive) | > 100 µM (inactive) | > 100 µM (inactive) | > 100 µM (inactive) |  | > 100 µM (inactive) | > 100 µM (inactive) |  |
| Cc1c2c(cc3c1C(=O)C(O)=C([C@@H](C)CO)C3=O)C(C)(C)CCC2 | 21.6 µM (inactive) | 22.8 µM (inactive) | 5.07 µM (inactive) | 22.3 µM (inactive) | 27 µM (inactive) | 35.2 µM (inactive) |  | 15 µM (inactive) | 36.9 µM (inactive) |  | 32.3 µM (inactive) | 26.9 µM (inactive) | 14.3 µM (inactive) | 30.7 µM (inactive) |  | 30.5 µM (inactive) | 29.4 µM | 32.1 µM (inactive) | 23.4 µM (inactive) | 23.3 µM (inactive) |
| O=C(O)c1ccccc1/C=N/N=C1NCCN1 | > 100 µM (inactive) | 88.1 µM (inactive) | > 100 µM (inactive) | > 100 µM (inactive) | > 100 µM (inactive) | > 100 µM (inactive) | 49.4 µM (inactive) | 97.9 µM (inactive) | > 100 µM (inactive) | > 100 µM (inactive) | > 100 µM (inactive) | > 100 µM (inactive) | > 100 µM (inactive) | > 100 µM (inactive) | 91.2 µM (inactive) |  | > 100 µM | > 100 µM (inactive) | > 100 µM (inactive) | > 100 µM (inactive) |
| COc1ccc2nc3ccc(OC)cc3c(SCC3CO3)c2c1 (stereo unspecified) | 37.2 µM (inactive) | 14.1 µM (inactive) | 24.6 µM (inactive) | 60.7 µM (inactive) | 19 µM (inactive) | 15.8 µM (inactive) |  | 13.2 µM (inactive) | 24.9 µM (inactive) | 12 µM (inactive) | 11.1 µM (inactive) | 18.2 µM (inactive) | 16.1 µM (inactive) | 15.8 µM (inactive) | 11.2 µM (inactive) |  | 15.6 µM | 15.8 µM (inactive) | 15 µM (inactive) | 17.1 µM (inactive) |
| O=C(O)c1cc(CCc2cc(O)ccc2O)ccc1O | > 100 µM (inactive) | > 100 µM (inactive) |  | > 100 µM (inactive) | > 100 µM (inactive) | > 100 µM (inactive) | 30.6 µM (inactive) | > 100 µM (inactive) | > 100 µM (inactive) | > 100 µM (inactive) | > 100 µM (inactive) | > 100 µM (inactive) | > 100 µM (inactive) | 14 µM (inactive) | > 100 µM (inactive) | > 100 µM (inactive) | > 100 µM | > 100 µM (inactive) |  | > 100 µM (inactive) |
| O=C(c1cccnc1)N1N=C(c2ccc(Cl)cc2)CC1(O)c1cc(F)c(Cl)cc1Cl (stereo unspecified) | 5.7 µM (inactive) | 33.3 µM (inactive) | 41.3 µM (inactive) | 19.5 µM (inactive) | 9.98 µM (inactive) | 24.6 µM (inactive) | 15.1 µM (inactive) | 19.2 µM (inactive) | 33.7 µM (inactive) | 21.5 µM (inactive) | 17.9 µM (inactive) | 15.9 µM (inactive) | 28.8 µM (inactive) | 16.7 µM (inactive) |  | 16.9 µM (inactive) | 13.6 µM | 7.05 µM (inactive) | 15.1 µM (inactive) | 16 µM (inactive) |
| CCC(C)(C)c1ccc(OCCCCNC(=O)c2ccc3ccccc3c2O)c(C(C)(C)CC)c1 | 29.8 µM (inactive) | 11 µM (inactive) | 55.2 µM (inactive) | 48.3 µM (inactive) | 14.2 µM (inactive) | 30.8 µM (inactive) | 29.1 µM (inactive) | 22.7 µM (inactive) | 69.5 µM (inactive) | 23.1 µM (inactive) | 15.1 µM (inactive) |  | 44.8 µM (inactive) | 35.6 µM (inactive) | 28.3 µM (inactive) | 54.7 µM (inactive) | 0.425 µM |  | 30 µM (inactive) | 25.4 µM (inactive) |
| O=C1C(NCCc2cc(Cl)c(O)c(Cl)c2)=CC(=O)c2[nH]cnc21 |  | 4.57 µM (inactive) | 33.7 µM (inactive) | 18 µM (inactive) | 21.2 µM (inactive) | 33.7 µM (inactive) | 17.4 µM (inactive) |  | 88.7 µM (inactive) | 26.5 µM (inactive) | 55.5 µM (inactive) | 16.7 µM (inactive) | 35.5 µM (inactive) | 19.6 µM (inactive) | 26.9 µM (inactive) |  | 39.1 µM |  | 31 µM (inactive) | > 100 µM (inactive) |

— ChEMBL document CHEMBL1201862, “PubChem BioAssay data set” (2004)
